# Assay results published in patent US11352396B2, “Antimicrobial peptides and methods of using same” (Zoetis Services LLC, priority 2017, dated 2022).
# Legend:
# [1] = tested on: E. coli ATCC 25922; type: cell-based; conditions: E. coli 25922, Table 6
# In short: (§1)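 Broth microdilution followed CLSI VET01-S2, with peptides serially diluted to in-assay concentrations of 50 μM to 0.05 μM. A 0.5 McFarland inoculum diluted 1:250 in Mueller-Hinton Broth was incubated with peptide for 18-20 hours. MIC was read visually as the first well without visible growth.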
# [2] = tested on: MRSP (Methicillin-Resistant Staphylococcus pseudintermedius); experiment: MIC against selected strains of MRSP; type: cell-based; design: key to MIC MRSP 72192 / MIC MRSP 76923 / MR 71994 / Mr 88493 / MR 72035 / MR 72192 / MR 76923 / MR 79882 / MR 80279 / MR 81926 / MR 86002 / MR 87665: MIC in μM (visual, first well with no growth); conditions: for MR 71994: MRSP strain 71994, Table 6; for MR 72035: MRSP strain 72035, Table 6; for MR 72192: MRSP strain 72192, Table 6; for MR 76923: MRSP strain 76923, Table 6; for MR 79882: MRSP strain 79882, Table 6; for MR 80279: MRSP strain 80279, Table 6; for MR 81926: MRSP strain 81926, Table 6; for MR 86002: MRSP strain 86002, Table 6; for MR 87665: MRSP strain 87665, Table 6; for Mr 88493: MRSP strain 88493, Table 6
# In short: (§2)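 MIC read by eye as the first well showing no growth after 18–20 h incubation. Cultures at 0.5 McFarland were diluted 1:250 in Mueller-Hinton broth and exposed to peptide over 50 μM–0.05 μM in the assay, per CLSI VET01-S2 microbroth method.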
# [3] = tested on: cRBC; type: cell-based, canine
# In short: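 Percent lysis, measured by absorbance at 405 nm, used 1% Triton X-100 as full effect and phosphate buffer as zero. Peptides spanned 50 µM–0.05 µM and were held with plasma-depleted washed erythrocytes at 37 °C for 1 h.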
# [4] = tested on: Canine-derived epithelial keratinocyte (CPEK) cells; type: cell-based
# In short: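 Viability was read by CellTiter-Glo luminescence after overnight exposure (37 °C, 5% CO2) of canine keratinocytes to a peptide range of 50–0.05 μM. Percent effect used phosphate buffer as the zero control and 0.1% Triton X-100 as the full-effect control.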
# [5] = tested on: MSSP (Methicillin-Susceptible Staphylococcus pseudintermedius); experiment: MIC against selected strains of MSSP; type: cell-based; design: MIC MSSP 49051 / MIC MSSP 81923 / MIC MSSP 84250 / Effect on MSSP 86000 / Effect on MSSP 72036 / Effect on MSSP 78032: unit not given beside the values; Effect on MSSP 71990 / Effect on MSSP 86001 / Effect on MSSP 72191 / Effect on MSSP 76986 / Effect on MSSP 77378 / Effect on MSSP 81923 / Effect on MSSP 84250 / Effect on MSSP 84658: unit: µM; conditions: for SP 49051: S. pseudintermedius 49051, Table 6; for Effect on MSSP 71990: strain 71990, Table 5; for Effect on MSSP 72036: strain 72036, Table 5; for Effect on MSSP 72191: strain 72191, Table 5; for Effect on MSSP 76986: strain 76986, Table 5; for Effect on MSSP 77378: strain 77378, Table 5; for Effect on MSSP 78032: strain 78032, Table 5; for Effect on MSSP 81923: strain 81923, Table 5; for Effect on MSSP 84250: strain 84250, Table 5; for Effect on MSSP 84658: strain 84658, Table 5; for Effect on MSSP 86000: strain 86000, Table 5; for Effect on MSSP 86001: strain 86001, Table 5
# In short: as §2
# [6] = tested on: S. aureus ATCC 29213; type: cell-based; design: key to SA 29213: MIC in μM (lowest conc. with no visible growth); conditions: S. aureus 29213, Table 6
# In short: as §1
Substance,EC 25922 [1],MR 71994 [2],MR 72035 [2],MR 72192 [2],MR 76923 [2],MR 79882 [2],MR 80279 [2],MR 81926 [2],MR 86002 [2],MR 87665 [2],Mr 88493 [2],cRBC (50 μM) [3],CPEK (50 μM) [4],SP 49051 [5],Effect on MSSP 71990 [5],Effect on MSSP 72036 [5],Effect on MSSP 72191 [5],Effect on MSSP 76986 [5],Effect on MSSP 77378 [5],Effect on MSSP 78032 [5],other results
112 (KWCFRVCYRGICYRRCKD; Artificial Antimicrobial peptide) [compound 112],1.6 µM,1.6,1.6,1.6,1.6,0.8,0.8,1.6,1.6,1.6,1.6,61.0,14.2,1.6,1.6,1.6,1.6,1.6,0.8,1.6,Effect on MSSP 81923 [5]: 1.6; Effect on MSSP 84250 [5]: 1.6; Effect on MSSP 84658 [5]: 1.6; Effect on MSSP 86000 [5]: 1.6; Effect on MSSP 86001 [5]: 1.6; SA 29213 [6]: 3.1
113 (KWCFRVCYRGICYRRCAD; Artificial Antimicrobial peptide) [compound 113],1.6 µM,1.6,1.6,1.6,1.6,1.6,1.6,1.6,1.6,1.6,1.6,86.3,15.7,1.6,1.6,1.6,1.6,1.6,1.6,1.6,Effect on MSSP 81923 [5]: 1.6; Effect on MSSP 84250 [5]: 1.6; Effect on MSSP 84658 [5]: 1.6; Effect on MSSP 86000 [5]: 1.6; Effect on MSSP 86001 [5]: 1.6; SA 29213 [6]: 6.2
114 (KWCFRVCYRGICYRRCRR; Artificial Antimicrobial peptide) [compound 114],1.6 µM,3.1,3.1,3.1,3.1,1.6,1.6,3.1,3.1,3.1,3.1,97.9,11.9,3.1,1.6,3.1,3.1,1.6,1.6,3.1,Effect on MSSP 81923 [5]: 3.1; Effect on MSSP 84250 [5]: 3.1; Effect on MSSP 84658 [5]: 3.1; Effect on MSSP 86000 [5]: 3.1; Effect on MSSP 86001 [5]: 1.6; SA 29213 [6]: 6.2
115 (GWCFRVCYRGICYRRCND; Artificial Antimicrobial peptide) [compound 115],0.8 µM,1.6,1.6,1.6,1.6,0.8,1.6,1.6,1.6,1.6,1.6,94.6,5.1,1.6,1.6,1.6,1.6,1.6,0.8,1.6,Effect on MSSP 81923 [5]: 1.6; Effect on MSSP 84250 [5]: 1.6; Effect on MSSP 84658 [5]: 1.6; Effect on MSSP 86000 [5]: 1.6; Effect on MSSP 86001 [5]: 1.6; SA 29213 [6]: 3.1
